Results on 7 compounds are retold here after patent publication US7851637B2, “Compounds and methods for inhibiting the interaction of BCL proteins with binding partners” (Infinity Pharmaceuticals, Inc., priority 2004, dated 2010).

Like-named read-outs stand apart in the source and are kept apart here.

Test [1] concerns Human Pancreatic Cancer Cell Line Panc1. The test can be described thus: Cell death assay (propidium iodide/Hoechst) in Panc1 cells with or without camptothecin. The following applies: 72 hours, % cell death by propidium iodide/Hoechst. The class given is cell-based. An outline of the steps:
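Panc1 cells, 10,000/well, exposed 72 h at 37 C to compound (29 uM to 0.13 uM, 0.3% DMSO) with or without 3 uM camptothecin. Propidium iodide and Hoechst staining imaged by fluorescence microscopy; % cell death = PI-stained/Hoechst-stained cells × 100.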

Test [2] has as its target Bcl-2 (Homo sapiens, UniProt P10415). Put plainly: Bcl-2 binding affinity analysis (fluorescence polarization binding assay). An outline of the steps: (§1)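 Compounds were tested in vitro for association with the purified target, with binding quantified from the change in fluorescence polarization.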
In general terms: Polarisation of emitted light reports the rotation of a fluorescent probe.

For test [3], the target named is Bcl-xL (Homo sapiens, UniProt Q07817). The test can be described thus: Bcl-xL binding affinity analysis (fluorescence polarization binding assay). Set-up: scale not given here. An outline of the steps:
as §1

Test [4] has as its system RL Human Follicular Lymphoma Cell Line. Put plainly: Alamar blue cytotoxicity assay in RL cells. The class given is cell-based. The following applies: Homo sapiens, 72 h incubation, read-out: Bcl RL Alamar Blue IC50. Summed up:
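Compounds tested at 29 uM to 0.013 uM final (0.3% DMSO) on 30,000 RL cells per well. After 72 h at 37 C, 5% CO2, viability read with Alamar blue.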
Background: Resazurin is reduced to fluorescent resorufin, in cell work by metabolically active cells.

[5] abbreviates: Homo sapiens, PANC-1, without camptothecin, read-out: Panc1 − Cpt IC50.
Where [6] appears, read: with 3 uM Camptothecin, read-out: Panc1 + Cpt IC50.

A word on the IC50: it is the concentration at which inhibition is half-maximal. For orientation: Ki means the dissociation constant of the complex between target and ligand, obtained from inhibition or displacement.

Chain of Bcl-xL (Q07817 whole entry): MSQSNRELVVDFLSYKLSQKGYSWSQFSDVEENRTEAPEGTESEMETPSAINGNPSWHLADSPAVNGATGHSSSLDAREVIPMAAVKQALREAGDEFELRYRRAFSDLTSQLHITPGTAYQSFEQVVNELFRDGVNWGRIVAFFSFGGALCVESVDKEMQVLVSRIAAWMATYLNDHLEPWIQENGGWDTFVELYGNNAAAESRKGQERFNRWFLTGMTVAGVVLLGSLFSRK
Chain of Bcl-2 (P10415 whole entry): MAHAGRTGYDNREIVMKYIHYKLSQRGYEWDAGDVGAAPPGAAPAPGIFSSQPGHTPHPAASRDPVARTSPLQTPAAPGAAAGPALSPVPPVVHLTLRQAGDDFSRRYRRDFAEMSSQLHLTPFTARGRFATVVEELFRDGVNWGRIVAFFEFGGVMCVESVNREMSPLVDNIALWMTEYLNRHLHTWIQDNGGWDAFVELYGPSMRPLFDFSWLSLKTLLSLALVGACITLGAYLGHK

As to `CC(C)CC(CN(C)C)N(Cc1cccc(CN2OC(CO)C(C(C)O)C2C(=O)NC2CC3CC(C2C)C3(C)C)c1)Cc1ccccc1F` (centres unmarked) [Compound 312], the IC50 in test [1] (setting [5]) is greater than 2.5 µM; in test [1] (setting [6]), greater than 2.5 µM; in test [4] it was less than 2 µM. The compound further displayed an inhibition constant (Ki) in test [2] of less than 0.8 µM. For the same compound, the “Bcl-XL binding affinity Ki” value in test [3] is listed as “♯”.
For `CC(O)C1C(CO)ON(Cc2cccc(CN(CCN(C)C)Cc3ccc4ccccc4c3)c2)C1C(=O)NC1CC2CC(C1C)C2(C)C` (centres unmarked) [Compound 375], the values for the IC50 in test [1] (setting [5]), in test [1] (setting [6]) and in test [4] were greater than 2.5 µM, greater than 2.5 µM and greater than 5 µM, respectively. The compound further yielded a Ki in test [2] of less than 0.8 µM. For the same compound, the “Bcl-XL binding affinity Ki” value in test [3] is recorded as “♯”.
With `CC(C)C[C@@H](CN(C)C)N(Cc1cccc(CN2O[C@@H](CO)C([C@H](C)O)[C@H]2C(=O)N[C@H]2C[C@H]3C[C@@H]([C@@H]2C)C3(C)C)c1)Cc1ccccc1O` (some centres unmarked) [Compound 300], the IC50 in test [1] (setting [5]) was greater than 2.5 µM; in test [1] (setting [6]), 1.8 to 2.5 µM; in test [4] it was less than 2 µM. The Ki in test [2] was less than 0.8 µM. In test [3], the “Bcl-XL binding affinity Ki” value is on record as “♯”.
On to `CC(C)CC(CN(C)C)N(Cc1cccc(CN2OC(CO)C(C(C)O)C2C(=O)NC2CC3CC(C2C)C3(C)C)c1)Cc1ccccc1Cl` (centres unmarked) [Compound 313], for which the IC50 is 1.3 to 1.8 µM in test [1] (setting [5]), 1.3 to 1.8 µM in test [1] (setting [6]) and less than 2 µM in test [4]. The Ki in test [2] is less than 0.8 µM. Further, the “Bcl-XL binding affinity Ki” value in test [3] is “♯”.
Regarding `C[C@@H]1[C@@H](NC(=O)[C@@H]2C([C@H](C)O)[C@H](CO)ON2Cc2cccc(CN(CCN(C)C)Cc3ccc(Br)cc3)c2)C[C@H]2C[C@@H]1C2(C)C` (some centres unmarked) [Compound 360], the values for the 50% inhibitory concentration (IC50) in test [1] (setting [5]), in test [1] (setting [6]) and in test [4] were greater than 2.5 µM, greater than 2.5 µM and greater than 5 µM, respectively. The compound further displayed a Ki in test [2] of less than 0.8 µM. For the same compound, the “Bcl-XL binding affinity Ki” value in test [3] is on record as “♯”.
For the compound `COc1ccccc1CN(Cc1cccc(CN2OC(CO)C(C(C)O)C2C(=O)NC2CC3CC(C2C)C3(C)C)c1)C(CC(C)C)CN(C)C` (centres unmarked) [Compound 301], the IC50 in test [1] (setting [5]) was greater than 2.5 µM; in test [1] (setting [6]), greater than 2.5 µM; in test [4], less than 2 µM. The same compound displayed a Ki in test [2] of less than 0.8 µM. In addition, in test [3], the “Bcl-XL binding affinity Ki” value is “♯”.
On to `CC(O)C1C(CO)ON(Cc2cccc(CN(CCN(C)C)Cc3ccccc3C(F)(F)F)c2)C1C(=O)NC1CC2CC(C1C)C2(C)C` (centres unmarked) [Compound 357], for which the half-maximal inhibitory concentration (IC50) in test [1] (setting [5]) was greater than 2.5 µM; in test [1] (setting [6]), greater than 2.5 µM; in test [4] it was 2 to 5 µM. Moreover, the Ki in test [2] is less than 0.8 µM. Besides, in test [3], the “Bcl-XL binding affinity Ki” value is “♯”.
